Where two headings read alike, the source gives them in different places.
Columns and labels:
Melanoma M1585 = assay: MTT proliferation assay, M1585 melanoma; type: cell-based; conditions: Homo sapiens; for inhibition at 0.625 µM: disulfiram 0.625 μM; for inhibition at 0.625 µM / inhibition at 1.25 µM / inhibition at 2.5 µM / inhibition at 5 µM: read-out: Mean Percent Inhibition of Growth; for inhibition at 1.25 µM: disulfiram 1.25 μM; for inhibition at 2.5 µM: disulfiram 2.5 μM; for inhibition at 5 µM: disulfiram 5.0 μM
Procedure: (§1) Human malignant cell lines were obtained from American Type Tissue Culture Collection (Rockville, Md.). Melanoma cells lines CRL 1585 and 1619 were cultured in RPMI 1640 (GIBCO-BRL, Life Technologies, Grand Island, N.Y.) with 10% FBS and passed with nonenzymatic Cell Dissociation Solution® (Sigma). The prostate adenocarcinoma cell line CRL 1435 (PC-3) was also cultured in RPMI 1640 with 10% FBS but passed with 0.05% trypsin and 0.53 mM EDTA. The squamous lung carcinoma NCI-H520 and the adenosquamous lung carcinoma NCI-H596 cell lines were grown in RPMI 1640 supplemented with 10% FBS, 10 mM HEPES and 1.0 mM sodium pyruvate and passed with trypsin/EDTA. The small cell lung carcinoma NCI-H82 was cultured as a suspension in RPMI 1640 with 10% FBS. All of the above were grown in a 37° C. humidified environment containing 5% CO2/air. The breast carcinoma cell line MDA-MB-453 was grown in a 37° C. humidified environment with free gas exchange with atmospheric air using Leibovitz's L-15 medium with 2 mM L-glutamine and 10% FBS and was passed with trypsin/EDTA.
The effect of disulfiram (0.15 to 5.0 μM), diethyldithiocarbamate (DDC, 1.0 μM) or PDTC (0.625 to 5.0 μM) on proliferation of malignant cell lines was studied in cultures stimulated with 10% FBS. Cell numbers were quantitated 24-72 hours later. In some experiments disulfiram or PDTC were added immediately after cells were plated. In other experiments, cells were plated and allowed to grow for 24-72 hours before fresh media with disulfiram or PDTC was added, and cell numbers were assayed 24-72 hours later. Synergy was studied between disulfiram and N,N′-bis(2-chloroethyl-N-nitrosourea (carmustine or BCNU, 1.0 to 1,000 μM) or cisplatin (0.1 to 100 μg/ml) added to medium. The effect of metals on disulfiram was studied with 0.2 to 10 μM copper (provided as CuSO4), zinc (as ZnCl2), silver (as silver lactate) or gold (as HAuCl4.3H2O) ions added to growth medium. No pH changes occurred with addition of metal salts to culture medium. To provide a biologically relevant source of copper, in some experiments medium was supplemented with human ceruloplasmin at doses replicating low and high normal adult serum concentrations (250 and 500 μg/ml).
Proliferation of cultured cells was quantitated using a previously reported calorimetric method based upon metabolic reduction of the soluble yellow tetrazolium dye 3-[4,5-dimethylthiazol]-2yl-2,5-diphenyl tetrazolium bromide (MTT) to its insoluble purple formazan by the action of mitochondrial succinyl dehydrogenase (See, e.g., S. J. Hirst, et al., “Quantifying proliferation of cultured human and rabbit airway smooth muscle in response to serum and platelet derived growth factor,” Am. J. Respir. Cell Mol. Biol. 7:574-581 (1992); R. Dashtaki, et al. R., supra; S. S. Brar, et al., “Requirement for reactive oxygen species in serum-induced and platelet-derived growth factor-induced growth of airway smooth muscle,” J. Biol. Chem. 274:20017-20026 (1999)). This assay empirically distinguishes between dead and living cells. For proliferation studies, cells were seeded into 24-well uncoated plastic plates (Costar) at 50,000 cells per well and cultured with respective media and mitogens. After 24-96 hours, medium was removed, cells were washed twice with 1 ml of sterile Dulbecco's modified phosphate buffered saline without Ca^2+ or Mg^2+ (DPBS), the medium was replaced with 1 ml/well fresh medium containing 100 μg/ml MTT, and plates were incubated an additional hour. MTT-containing medium was removed, 0.5 ml dimethylsulfoxide (DMSO) was added to each well, and the absorbance of the solubilized purple formazan dye was measured at 540 nm. A total of 4-6 wells were studied at each treatment condition. Preliminary studies were performed with 50-200 μg/ml MTT incubated for 15 minutes to 3 hours to determine the optimum concentration and incubation time at which the rate of conversion was linear and proportional to the number of cells present. […]

[1] = test system: Squamous lung carcinoma NCI-H520; assay: MTT proliferation assay, squamous lung carcinoma; type: cell-based; conditions: Homo sapiens, treatment initially, after 48 hours, 10% FBS, read-out: Mean Percent Inhibition of Growth
Procedure: as §1
(§2) The effect of disulfiram (0.15 to 5.0 μM), diethyldithiocarbamate (DDC, 1.0 μM) or PDTC (0.625 to 5.0 μM) on proliferation of malignant cell lines was studied in cultures stimulated with 10% FBS. Cell numbers were quantitated 24-72 hours later. In some experiments disulfiram or PDTC were added immediately after cells were plated. In other experiments, cells were plated and allowed to grow for 24-72 hours before fresh media with disulfiram or PDTC was added, and cell numbers were assayed 24-72 hours later. […]
(§3) Proliferation of cultured cells was quantitated using a previously reported calorimetric method based upon metabolic reduction of the soluble yellow tetrazolium dye 3-[4,5-dimethylthiazol]-2yl-2,5-diphenyl tetrazolium bromide (MTT) to its insoluble purple formazan by the action of mitochondrial succinyl dehydrogenase (See, e.g., S. J. Hirst, et al., “Quantifying proliferation of cultured human and rabbit airway smooth muscle in response to serum and platelet derived growth factor,” Am. J. Respir. Cell Mol. Biol. 7:574-581 (1992); R. Dashtaki, et al. R., supra; S. S. Brar, et al., “Requirement for reactive oxygen species in serum-induced and platelet-derived growth factor-induced growth of airway smooth muscle,” J. Biol. Chem. 274:20017-20026 (1999)). […] MTT-containing medium was removed, 0.5 ml dimethylsulfoxide (DMSO) was added to each well, and the absorbance of the solubilized purple formazan dye was measured at 540 nm. […]

[2] = test system: Small cell lung carcinoma NCI-H82; assay: MTT proliferation assay, small cell lung carcinoma; type: cell-based; conditions: Homo sapiens, treatment initially, after 48 hours, 10% FBS, read-out: Mean Percent Inhibition of Growth
Procedure: as §1, §2, §3

cyclin B1 = assay: Immunoblot for cyclin B1; type: cell-based, human; conditions: disulfiram plus copper; data not shown
Procedure: (§4) Cells were lysed and proteins were isolated and quantitated by immunoassay as previously detailed using 2 μg/ml of primary rabbit polyclonal antibodies against human bcl-2, p53, p21^WAF1/CiP1, cyclin A and cyclin B1, and peroxidase-labeled donkey polyclonal anti-rabbit IgG. Cells were placed on ice, washed twice with cold DPBS, scraped into 0.5 ml boiling buffer (10% [vol/vol] glycerol and 2% [wt/vol] sodium dodecyl sulfate [SDS] in 83 mM Tris, pH 6.8) and sheared by four passages through a pipette. Aliquots were removed for protein determination, using the BCA protein assay (Pierce). After 10% β-mercaptoethanol and 0.05% bromophenol blue were added, lysates were boiled for 5 min and stored at −80° C. until immunoblotting was performed. Proteins in defrosted samples were separated by SDS-polyacrylamide gel electrophoresis on 12% polyacrylamide gels (15 μg protein/lane) and electrotransferred to 0.45 μm Hybond ECL nitrocellulose membranes (Amersham Life Sciences) using the wet transblot method in transfer buffer (0.025 M Tris, 0.192 M glycine, 2.6 mM SDS, and 20%[vol/vol] methanol; pH 8.8) at 100 volts for 1 hour. […] Immunoblots were rinsed again as above and detected via an enhanced chemiluminescence method (ECL Western blotting detection system, Amersham Life Science, Buckinghamshire, England). […]

bcl-2 = assay: Immunoblot for bcl-2; type: cell-based, human; conditions: cell lines studied; data not shown
Procedure: as §4

[3] = treatment after 24 hours of growth
[4] = treatment initially, after 48 hours, 10% FBS

IC50 (Melanoma M1585; M1585 melanoma cells, read-out: 50% inhibitor concentration (IC50)): 300 nM
SMILES: CCN(CC)C(=S)SSC(=S)N(CC)CC [Disulfiram, tetraethylthiuram disulfide]
inhibition at 0.625 µM (Melanoma M1585; [3]): 74 ± 4%
inhibition at 0.625 µM (Melanoma M1585; [4]): 100%
inhibition at 1.25 µM (Melanoma M1585; [3]): 49 ± 7%
inhibition at 1.25 µM (Melanoma M1585; [4]): 100%
inhibition at 2.5 µM (Melanoma M1585; [3]): 41 ± 2%
inhibition at 2.5 µM (Melanoma M1585; [4]): 100%
inhibition at 5 µM (Melanoma M1585; [3]): 37 ± 6%
inhibition at 5 µM (Melanoma M1585; [4]): 100%
inhibition at 0.625 µM ([1]; disulfiram 0.625 μM): 76 ± 3%
inhibition at 1.25 µM ([1]; disulfiram 1.25 μM): 82 ± 4%
inhibition at 2.5 µM ([1]; disulfiram 2.5 μM): 77 ± 4%
inhibition at 5 µM ([1]; disulfiram 5.0 μM): 78 ± 3%
inhibition at 0.625 µM ([2]; disulfiram 0.625 μM): 68 ± 3%
inhibition at 1.25 µM ([2]; disulfiram 1.25 μM): 76 ± 6%
inhibition at 2.5 µM ([2]; disulfiram 2.5 μM): 76 ± 5%
inhibition at 5 µM ([2]; disulfiram 5.0 μM): 72 ± 3%
levels of B1 (cyclin B1): remained unchanged
expression of bcl-2 (bcl-2): no consistent effect

From patent publication US6548540B2, “Method of treating cancer using dithiocarbamate derivatives” (Charlotte-Mecklenburg Hospital Authority, priority 1998, dated 2003)
